Source: patent publication US8975234B2, “Anti-bacterial infection, inflammation, and leukemia composition and use thereof” (priority 2011, dated 2015)

Columns and labels:
[1] = tested on: human embryonic kidney cell line HEK 293; assay: Cell viability assay (alamarBlue); assay type: cell-based; conditions: 40 μg/mL, 24 hours
Method: (§1) Cell viability was measured using alamarBlue. For cell viability assays, human embryonic kidney cell line HEK 293 and human hepatoma cell line Hep G2 were plated 180 μL in each well on a 96-well plate (for HEK 293, at a density of about 10,000 cells/well; for Hep G2, at a density of about 7500 cells/well). The cells were grown overnight (16˜18 hours) and left to attach. After overnight incubation, 20 μL of Tellimagrandin II was added to give final concentrations of 0, 20, 30, 40 and 50 μg/mL. The cultures with 0 μg/mL Tellimagrandin II and without adding additional drug (medium only) were as controls. The cells are then incubated in a 5% CO2, 37° C. incubator for 24 hours. After 24 hours, 100 μL of alamarBlue was added to each well, and cultured in a 5% CO2, 37° C. incubator for 4 hours. Absorbance was monitored at 570 nm and 600 nm and cell viability was determined.

[2] = tested on: human hepatoma cell line Hep G2; assay: Cell viability assay (alamarBlue); assay type: cell-based; conditions: 40 μg/mL, 24 hours
Method: as §1

[3] = tested on: LPS-induced NO in RAW264.7 cells; assay: NO production analysis (Griess reagent); assay type: cell-based, mouse; conditions: before or after LPS, 25 and 50 μM statistically significant
Method: Murine macrophage cells were plated in each well on a 12-well plate at a density of about 4×10^5 RAW264.7 cells/mL. After overnight incubation, cells were serum starved in DMEM medium containing 2% Fetal Bovine Serum (FBS) for 3 hours. […] Endogenous NO production, induced by LPS. Cells were treated with Tellimagrandin II at various concentrations (10, 25 and 50 μM) before and after being treated with LPS. For NO production analysis, culture supernatants were brought to 96-well plate and mixed with Griess reagent. Plates were incubated and then the absorbance was measured at 520 nm. Sodium nitrite (NaNO2) solution (0 M˜0.1 M, 8 points) prepared in DMEM was used to generate a standard curve. The nitrite concentrations of samples were determined by interpolation from the standard curve. […] FIG. 10 is framed by a an x-axis labeled the relative order in LPS or Tellimagrandin II treatment and concentrations, and y-axis labeled NO concentration. The control (LPS only) and test groups were compared using a t-test, *p<0.05 (significant) and #p<0.01 (highly significant).

[4] = tested on: LPS-induced PGE2 in RAW264.7 cells; assay: Prostaglandin E2 (PGE2) assay; assay type: cell-based, mouse; conditions: 25 or 50 μM added 30 minutes before LPS
Method: One milliliter (1 mL) of murine macrophage cell line RAW264.7 (4×10^5 cells/mL) was seeded on a 12-well plate overnight. After overnight incubation, cells were serum starved in DMEM medium containing 2% Fetal Bovine Serum (FBS) for 3 hours. Then, Tellimagrandin II was added so that final concentrations of 10, 25 and 50 μM were obtained. Thus, after a 30-min incubation, murine macrophage cells were treated with LPS for 16 h and the cell culture supernatant was collected. Cell-free supernatants were diluted and PGE 2 in culture supernatants were detected by using a PGE2 assay kit (R&D system). The purpose of the study was to evaluate the LPS-induced PGE2 expression by co-treating with Tellimagrandin II.

K-562 cells [5] = assay: Cell cycle analyses by flow cytometry; assay type: cell-based, human; conditions: 0-50 μM
Method: K-562 cells were plated in 15 cm dish at a density of 5×10^5 cells/mL (15 mL) and incubated at 37° C. with 5% CO2 for 16˜18 hours. Cells were collected and centrifuged at 700 rpm for 3 minutes at room temperature, and resuspended in culture medium containing 0.04% fetal bovine serum and 8 mM L-glutamine. Then, cells were incubated at 37° C. with 5% CO2 for 16˜18 hours.
Collected above cells and plated in 3 cm dishes at an initial density of 5×10^5 cells/mL (3 mL). Cells were treated with Tellimagrandin II to final concentrations of 0, 10, 20, 30, 40 and 50 μM, and then incubated at 37° C. with 5% CO2 for 12 and 24 hours.
Cells were centrifuged at a speed of 700 rpm for 5 min at 4° C. and washed once with PBS. Cells were fixed by drop-wise addition of 70% ethanol into the cell suspension. After 16˜18 hours, the ethanol-suspended cells were centrifuged at a speed of […] for 5 minutes at 4° C. and the ethanol decanted thoroughly. Cells were resuspended in PBS containing RNase A (10 μg/mL) and 1% Triton X-100 and incubated at 37° C. in a 5% CO2 incubator for 30 minutes to 1 hour. For propidium iodide (PI) staining, cells were centrifuged at 3,500 rpm for 5 minutes at room temperature and resuspended in 600 μL PBS. 25 μL of PI (20 μg/mL) solution was added to the mixture and incubated at room temperature in the dark for 1 hour. […]

K-562 cells [6] = assay: DNA ladder test; assay type: cell-based, human; conditions: 48 hours, different concentrations
Method: K-562 cells treated with Tellimagrandin II were collected for electrophoresis to identify any DNA fragmentation.
A total of 3 mL cell solution at the concentration of 1×10^6 K-562 cells per mL was cultured with 6 cm cell culture plates in an incubator supplied with 5% CO2 at 37° C. for 30 minutes so that cells could adapt to the environment. Tellimagrandin II solutions of different concentrations were added by order so that the final concentrations are 0, 20, 30, 40, 50 and 60 μM respectively. The solution was placed in incubator with 5% CO2 at 37° C. for 48 hours before being centrifuged at 2,500 rpm at 4° C. for 5 minutes. After removing the supernatant, it's rinsed by PBS once. Then, cell lysis buffer 100 μL (1% NP-40 dissolved in […], pH 8.0) was added and the solution was shaken at high speed for 10 seconds.
The solution was centrifuged at 3,500 rpm for 5 minutes before 90 μL supernatant was collected and mixed properly with SDS solution 10 μL. RNase A (4 mg/mL) 50 μL was added into the mixed solution then placed in water bath at 56° C. for one hour to remove RNA. Proteinase K (10 mg/mL) 30 μL was then added before another one hour in the water bath at 56° C. to remove protein. […]

With `O=C(OC1O[C@@H]2COC(=O)c3cc(O)c(O)c(O)c3-c3c(cc(O)c(O)c3O)C(=O)O[C@H]2[C@H](OC(=O)c2cc(O)c(O)c(O)c2)[C@H]1OC(=O)c1cc(O)c(O)c(O)c1)c1cc(O)c(O)c(O)c1` (stereo partly drawn) [Tellimagrandin II] the Cell viability [1] was “at least 80%”, the Cell viability [2] was “at least 80%” and the “production of LPS-induced NO” value [3] was “decreased the production of LPS-induced NO”. For the same compound, the “expression of PGE2” value [4] was “significantly reduced the expression of PGE2”, the “percentage of the sub-G1 and G2/M-phase cells” value (K-562 cells [5]) was “increased in Tellimagrandin II treatments dose-dependently” and the “DNA fragmentation, DNA ladder electrophoresis” value (K-562 cells [6]) was “DNA fragmentation occurred”.
